Assay results: the METLIN SMRT retention time set (Domingo-Almenara et al. 2019)

Assay: gradient 5% acetonitrile 3 min, to 50% in 2 min, to 85% in 15 min, held 3 min, 100 µL/min
Conditions: column: Zorbax Extend-C18 2.1 x 50 mm; eluents: water / acetonitrile, 0.1% formic acid
How it was run: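 The system's dead and dwell volumes were 40 μL and 900 μL, with a Zorbax Extend-C18 column (2.1 × 50 mm, 1.8 μm) run at 100 μL/min in water and acetonitrile containing 0.1% formic acid each. Pure standards were analyzed in mixtures of ~100 molecules by HPLC–quadrupole time-of-flight mass spectrometry in positive and negative ionization mode. Retention time was assigned from computationally picked, manually inspected adduct peaks.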

| Structure (SMILES) | RP-LC retention time |
| --- | --- |
| COc1cccc(CC2C(=O)Nc3ccc(Br)cc32)c1OC (configuration not stated) | 842 s |
| O=C(NCCCN1CCOCC1)C1CCCN(c2ncnc3c2nc2n3CCCCC2)C1 (configuration not stated) | 580 s |
| CC(C)CCNC(=O)CC1Sc2ncccc2N(CC(C)C)C1=O (configuration not stated) | 868 s |
| CCCCN(C)C(=O)CCC1CCN(c2cc(NC3CC3)ncn2)CC1 | 654 s |
| Cc1cccc2cc3cccc(C)c3nc12 | 696 s |
| Cc1ccc(-c2nc(NCC3CCCO3)ncc2C(=O)O)cc1 (configuration not stated) | 735 s |
| CCCCS(=O)(=O)N1CCN(c2nc(N3CCOCC3)nc(-n3ccnc3)n2)CC1 | 604 s |
| CC(C)n1c(N2CCN(C(=O)CSc3ccccc3)CC2)cc(=O)n(C(C)C)c1=O | 902 s |
| COc1ccc(-c2nc3cnccn3c2Nc2cccc(Cl)c2C)cc1OC | 890 s |
| O=C(c1ccccc1)N1CCCCC1c1nncn1CC1CC1 (configuration not stated) | 592 s |
| CC1CCCN(S(=O)(=O)c2ccc(-n3cnc(C(=O)N4CCCCC4)c3)nc2)C1 (configuration not stated) | 881 s |
| Cn1c(N2CCN(C(=O)c3ccc(F)c(Cl)c3)CC2)cc(=O)n(C)c1=O | 686 s |
| COc1ccc(-c2noc(C3CC(=O)N(c4ccc(F)cc4)C3)n2)cc1OC (configuration not stated) | 808 s |
| O=C(NCc1ccc(F)cc1)C1CCCN(c2ccc3cc(S(=O)(=O)N4CCCC4)ccc3n2)C1 (configuration not stated) | 754 s |
| CCOC(=O)c1c(C)c(CCC(=O)N2CCN(c3ccccn3)CC2)c(C)n1C | 646 s |
| COC(=O)c1cc(S(=O)(=O)N2CCCC2C(=O)Nc2ccccc2C(F)(F)F)cn1C (configuration not stated) | 918 s |
| COCc1cc(=O)n(CC(=O)Nc2cccc(OC)c2)c(N2CCOCC2)n1 | 779 s |
| O=C(NC1CC1)c1nc(C(=O)N2CCC3(CC2)OCCO3)cs1 | 649 s |
| O=C(CN1C(=O)COc2ccc(S(=O)(=O)N3CCOCC3)cc21)NCCc1c[nH]c2ccccc12 | 777 s |
| Cc1nnc(N2CCCC(C(=O)N3CCC4(CC3)OCCO4)C2)c2nn(-c3ccccc3)c(C)c12 (configuration not stated) | 660 s |
| Cc1nc(N2CCN(Cc3ccccc3)CC2)nc2c1C(=O)CC(c1ccc(Cl)cc1)C2 (configuration not stated) | 825 s |
| CCCC(C)C(=O)N1CCCN(C2=NS(=O)(=O)C(c3ccc(C)cc3)=C2C)CC1 (configuration not stated) | 884 s |
| O=C(Cc1cccs1)NC1CCCN(c2cc(-c3ccc(F)cc3)[nH]n2)C1 (configuration not stated) | 784 s |
| CCN1CCN(C(=O)C(C)n2c3ccccc3c3cnn(C)c(=O)c32)CC1 (configuration not stated) | 585 s |
| Cc1c(C(=O)C(=O)Nc2ccc(C(N)=O)cc2)c2ccccc2n1C | 686 s |
| COC(=O)c1c(N)n(CCc2ccccc2)c2nc3ccccc3nc12 | 711 s |

| Structure (SMILES) | RP-LC retention time |
| --- | --- |
| O=C(NCc1ccco1)N1CCN(c2nc3cccnc3n(Cc3ccccc3)c2=O)CC1 | 935 s |
| Cc1ccc(CNC(=O)N2CCCC(C)(C(=O)NCc3ccccc3C)C2)cc1 (configuration not stated) | 916 s |
| Cc1ccc(CNC(=O)N2CCC[C@@H]2C(=O)NCc2csc(-c3ccccc3)n2)cc1 | 824 s |
| O=C(Nc1nnc(C2CCCO2)o1)c1cc2ccccc2o1 (configuration not stated) | 655 s |
| Cn1nc(C(=O)Nc2cccc(-c3nnc4n3CCCC4)c2)c2ccccc21 | 712 s |
| Cc1ccc(C(=O)N2CCC[C@H]2c2nc(-c3ccccc3)n[nH]2)s1 | 740 s |
| Cc1ccc(NC(=O)Cn2cnc3nc(N4CCCC(C(=O)NC(C)C)C4)sc3c2=O)cc1C (configuration not stated) | 730 s |
| O=C(Nc1ccc(Cl)cc1F)N1CCCN(C2CCN(CC3CC3)C2=O)CC1 (configuration not stated) | 575 s |
| CCSc1nnc(-c2nn(C)c3c2CN(S(=O)(=O)c2ccc(Cl)cc2)CC3)n1CC | 983 s |
| O=C(Cn1cccc1-c1nnc(-c2ccccc2)o1)N1CCc2ccccc21 | 1020 s |
| CC(C)Cn1cc(S(=O)(=O)Nc2ccc(Cl)cc2)c2cccnc21 | 988 s |
| Cn1cc(-c2cc3n(n2)CCCN3C(=O)CCC(=O)NCc2ccco2)c2ccccc21 | 754 s |
| Cn1c(N2CCN(S(=O)(=O)c3cc(F)ccc3F)CC2)nc2ccccc21 | 601 s |
| CCCn1cc(C2=CCN(C(=O)NCc3ccc(C)cc3)CC2)c2cccnc21 | 939 s |
| N#Cc1ccc(C(=O)NC2CCN(C(=O)N3C[C@H]4C[C@H](C3)[C@H]3CCCC(=O)N3C4)CC2)cc1 | 640 s |
| CCC1CCCCN1CCCNC(=O)CCc1cc2ccc(C)cc2[nH]c1=O (configuration not stated) | 596 s |
| O=C(Cc1nnc(-c2ccc3ncccc3c2)o1)NCc1ccccc1Cl | 711 s |
| COc1ccccc1N1CCN(CCN(C(=O)c2ccc(F)cc2)c2ccccn2)CC1 | 792 s |
| CN1C(=O)c2cccnc2Sc2cc(NC(=O)c3ccc(OC(F)(F)F)cc3)ccc21 | 936 s |
| O=C(Cn1ncc2c(N3CCN(c4ccccn4)CC3)ncnc21)Nc1cccc(Cl)c1 | 638 s |
| COCCCn1c(=O)c2ccccc2n(Cc2nc(-c3ccc(C)c(C)c3)no2)c1=O | 1120 s |
| N#Cc1ccc(-c2csc(NC(=O)c3sc4ccccc4c3Cl)n2)cc1 | 1240 s |
| O=C(O)CNS(=O)(=O)c1ccc(Cl)c(-c2nnc(-c3ccccc3)o2)c1 | 766 s |
| Cc1ccc(S(=O)(=O)N2CCCC(c3nc(-c4cccc(-c5ccnn5C)c4)no3)C2)cc1 (configuration not stated) | 1140 s |
| COC(=O)c1c(C)[nH]c(C(=O)N2CCC(CC(=O)N3CCN(c4ccccc4)CC3)CC2)c1C | 775 s |

Next, values leading:

| RP-LC retention time | Structure (SMILES) |
| --- | --- |
| 665 s | CCCN1CCN(C(=O)C2CCN(S(=O)(=O)c3ccc4c(c3)sc(=O)n4C(C)C)CC2)CC1 |
| 1120 s | CC1CCC2(CC1)N=C(c1ccccc1)C(=O)N2CC(=O)Nc1ccc2c(c1)OCCO2 (configuration not stated) |
| 616 s | CN(C)c1ccc(-c2nc3cnccn3c2Nc2ccc(C(=O)O)cc2)cc1 |
| 751 s | O=C(O)/C=C/C(=O)Nc1cccc2cccnc12 |
| 707 s | CCc1ccc(CNC(=O)Cn2c(CC)nc3c(c2=O)CN(Cc2ccccc2)CC3)cc1 |
| 819 s | CC(C)c1cc(C(=O)NC2CC2)nc2cc(-c3ccccn3)nn12 |
| 891 s | COC(=O)c1ccc(CN2N=C(C(=O)N3CCC(C)CC3)S(=O)(=O)c3ccccc32)o1 |
| 702 s | Cc1nc([N+](=O)[O-])c(Sc2nc3ccccc3[nH]2)n1Cc1ccccc1 |
| 820 s | Cc1cc(Nc2ncccc2S(N)(=O)=O)ccc1F |
| 882 s | O=C(C1=CN(c2ccc(Cl)c(Cl)c2)c2cc(F)ccc2S1(=O)=O)N1CCOCC1 |
| 546 s | CCC(=O)N1CCc2c(sc3ncnc(N4CCN(C)CC4)c23)C1 |
| 991 s | O=C(C1COc2ccccc2O1)N1CCc2cc(-c3ccno3)ccc21 (configuration not stated) |
| 1330 s | CCN(C(=O)c1ccccc1Br)c1nc(-c2ccccc2)cs1 |
| 1240 s | COCCCNC(=O)c1ccc2c(c1)nc1n2CCN(C2CCCCC2)C1=O |
| 844 s | O=C(CSc1ncnc2ccccc12)N1CCCc2ccccc21 |
| 720 s | O=C(Cn1cnc2nc3c(cc2c1=O)CCCC3)Nc1ccccc1Cl |
| 608 s | CN1C(=O)c2cc(C(=O)NCCN3CCCCCC3)nn2CC1(C)C(=O)NCc1ccccc1 (configuration not stated) |
| 562 s | Cc1ccc(Oc2cccc(C(=O)NCCNc3cc(N4CCCC4)nc(C)n3)c2)nn1 |

| RP-LC retention time | Structure (SMILES) |
| --- | --- |
| 1110 s | COC(=O)c1ccccc1NC(=O)c1noc2c1CCC2 |
| 843 s | Cc1ccc(NC(=O)N2CCC(N3CCN(Cc4ccccc4)C3=O)CC2)c(C)c1 |
| 906 s | N#Cc1ccsc1NC(=O)C1CCN(S(=O)(=O)c2ccc(Cl)s2)CC1 |
| 1320 s | Cc1ccc(-c2csc(NC(=O)COc3c(C)ccc(C)c3C)n2)cc1 |
| 913 s | O=C(NCc1ccc(F)cc1Cl)C1=C2CCCN2c2ccccc2S1(=O)=O |
| 596 s | O=C(Cn1c(=O)n(-c2ccccc2)c2ncccc21)NCCCN1CCOCC1 |
| 650 s | CCCC(=O)Nc1cc(-c2nc3ccc(C)cc3[nH]2)ccc1C |
| 907 s | Cc1cc(C)n2c(Nc3ccccc3C)c(-c3ccc(O)cc3)nc2n1 |
| 806 s | Fc1ccc(CN2CCc3nc(N4CCN(c5ccccc5F)CC4)ncc3C2)cc1F |
| 648 s | CCOC(=O)c1csc(NC(=O)CC[C@H]2NC(=O)c3ccccc3NC2=O)n1 |
| 551 s | COc1ccccc1NC(=O)N1CCC(c2nc3ccncc3n2C(C)C)C1 (configuration not stated) |
| 635 s | O=C(NCc1ccc(N2CCOCC2)cc1)c1csc(-c2ccc(N3CCCC3)nc2)n1 |
| 699 s | COc1ccc(CCNC(=O)[C@@H]2[C@H](c3cc(OC)c(OC)c(OC)c3)c3cc4c(cc3[C@H](O)[C@H]2CO)OCO4)cc1OC |
| 698 s | CCCNC(=O)C1CCCN(c2ccc(SCC(=O)NCc3ccc(C)c(C)c3)nn2)C1 (configuration not stated) |
| 874 s | Cc1cccc(CN2CCCn3nc(C(=O)NCc4cccs4)cc3C2=O)c1 |
| 637 s | CSc1ccc(CNC(=O)C2CCN(c3cncnc3N3CCOCC3)CC2)cc1 |
| 1040 s | Cc1ccccc1Nc1c(-c2cccc(Br)c2)nc2cnccn12 |
| 865 s | CCCCOc1ccc(C(=O)NCc2ccco2)cc1 |
